Measured values from ChEMBL document CHEMBL4321812, “Structure-based rational design of staurosporine-based fluorescent probe with broad-ranging kinase affinity for kinase panel application” (Bioorg Med Chem Lett, 2019).

Experiments:
[1] = target: cAMP-dependent protein kinase catalytic subunit alpha (Homo sapiens, UniProt P17612); test: Binding affinity to recombinant human full length N-terminal GST-tagged PRKACA expressed in baculovirus expression system using kemptide as substrate incubated for 1 hr by TR-FRET assay
Insulin receptor = Insulin receptor (Homo sapiens, UniProt P06213); test: Binding affinity to recombinant full-length N-terminal His-FLAG-GST-tagged INSR (unknown origin) (1005 to 1310 residues) expressed in baculovirus infected Sf9 insect cells incubated for 1 hr by TR-FRET assay
Misshapen-like kinase 1 = Misshapen-like kinase 1 (Homo sapiens, UniProt Q8N4C8); test: Binding affinity to recombinant full-length N-terminal His-FLAG-GST-tagged MINK1 (unknown origin) (1 to 314 residues) expressed in baculovirus infected Sf9 insect cells incubated for 1 hr by TR-FRET assay
[2] = target: Serine/threonine-protein kinase pim-2 (Homo sapiens, UniProt Q9P1W9); test: Binding affinity to recombinant human full-length N-terminal GST-tagged PIM2 expressed in baculovirus expression system using S6K2 peptide as substrate incubated for 1 hr by TR-FRET assay
[3] = target: Platelet-derived growth factor receptor beta (Homo sapiens, UniProt P09619); test: Binding affinity to recombinant human N-terminal his-tagged PDGFRB (558 to 1106 residues) expressed in baculovirus expression system incubated for 1 hr by TR-FRET assay
[4] = target: Fibroblast growth factor receptor 4 (Homo sapiens, UniProt P22455); test: Binding affinity to recombinant N-terminal His-FLAG-GST-tagged FGFR4 (unknown origin) (460 to 802 residues) expressed in baculovirus infected Sf9 insect cells incubated for 1 hr by TR-FRET assay
Fibroblast growth factor receptor 4, sequence (P22455 whole entry, the tested form may be a part): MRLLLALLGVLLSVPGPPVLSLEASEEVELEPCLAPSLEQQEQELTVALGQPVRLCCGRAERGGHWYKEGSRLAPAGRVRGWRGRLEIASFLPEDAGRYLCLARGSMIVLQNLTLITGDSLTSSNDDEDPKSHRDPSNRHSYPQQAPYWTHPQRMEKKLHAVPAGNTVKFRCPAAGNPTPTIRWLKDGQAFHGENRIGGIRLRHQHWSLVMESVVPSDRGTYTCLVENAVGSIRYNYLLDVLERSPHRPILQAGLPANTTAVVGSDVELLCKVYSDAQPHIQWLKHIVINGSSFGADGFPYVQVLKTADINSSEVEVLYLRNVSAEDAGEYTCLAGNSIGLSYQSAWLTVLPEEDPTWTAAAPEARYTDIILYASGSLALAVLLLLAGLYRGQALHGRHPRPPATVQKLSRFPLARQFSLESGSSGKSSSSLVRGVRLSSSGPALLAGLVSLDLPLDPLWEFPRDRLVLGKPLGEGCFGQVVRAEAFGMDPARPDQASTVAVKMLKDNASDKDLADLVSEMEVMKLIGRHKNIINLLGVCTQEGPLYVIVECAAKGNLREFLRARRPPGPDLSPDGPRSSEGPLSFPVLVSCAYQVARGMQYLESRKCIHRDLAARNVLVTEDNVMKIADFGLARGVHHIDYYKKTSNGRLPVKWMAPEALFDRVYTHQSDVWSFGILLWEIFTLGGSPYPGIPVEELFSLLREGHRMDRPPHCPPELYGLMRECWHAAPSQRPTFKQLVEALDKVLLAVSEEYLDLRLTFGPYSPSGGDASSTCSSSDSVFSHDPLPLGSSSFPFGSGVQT

Angiopoietin-1 receptor = Angiopoietin-1 receptor (Homo sapiens, UniProt Q02763); test: Binding affinity to recombinant full-length N-terminal His-FLAG-GST-tagged TEK (unknown origin) (771 to 1124 residues) expressed in baculovirus infected Sf9 insect cells incubated for 1 hr by TR-FRET assay
Angiopoietin-1 receptor, sequence (Q02763 whole entry, the tested form may be a part): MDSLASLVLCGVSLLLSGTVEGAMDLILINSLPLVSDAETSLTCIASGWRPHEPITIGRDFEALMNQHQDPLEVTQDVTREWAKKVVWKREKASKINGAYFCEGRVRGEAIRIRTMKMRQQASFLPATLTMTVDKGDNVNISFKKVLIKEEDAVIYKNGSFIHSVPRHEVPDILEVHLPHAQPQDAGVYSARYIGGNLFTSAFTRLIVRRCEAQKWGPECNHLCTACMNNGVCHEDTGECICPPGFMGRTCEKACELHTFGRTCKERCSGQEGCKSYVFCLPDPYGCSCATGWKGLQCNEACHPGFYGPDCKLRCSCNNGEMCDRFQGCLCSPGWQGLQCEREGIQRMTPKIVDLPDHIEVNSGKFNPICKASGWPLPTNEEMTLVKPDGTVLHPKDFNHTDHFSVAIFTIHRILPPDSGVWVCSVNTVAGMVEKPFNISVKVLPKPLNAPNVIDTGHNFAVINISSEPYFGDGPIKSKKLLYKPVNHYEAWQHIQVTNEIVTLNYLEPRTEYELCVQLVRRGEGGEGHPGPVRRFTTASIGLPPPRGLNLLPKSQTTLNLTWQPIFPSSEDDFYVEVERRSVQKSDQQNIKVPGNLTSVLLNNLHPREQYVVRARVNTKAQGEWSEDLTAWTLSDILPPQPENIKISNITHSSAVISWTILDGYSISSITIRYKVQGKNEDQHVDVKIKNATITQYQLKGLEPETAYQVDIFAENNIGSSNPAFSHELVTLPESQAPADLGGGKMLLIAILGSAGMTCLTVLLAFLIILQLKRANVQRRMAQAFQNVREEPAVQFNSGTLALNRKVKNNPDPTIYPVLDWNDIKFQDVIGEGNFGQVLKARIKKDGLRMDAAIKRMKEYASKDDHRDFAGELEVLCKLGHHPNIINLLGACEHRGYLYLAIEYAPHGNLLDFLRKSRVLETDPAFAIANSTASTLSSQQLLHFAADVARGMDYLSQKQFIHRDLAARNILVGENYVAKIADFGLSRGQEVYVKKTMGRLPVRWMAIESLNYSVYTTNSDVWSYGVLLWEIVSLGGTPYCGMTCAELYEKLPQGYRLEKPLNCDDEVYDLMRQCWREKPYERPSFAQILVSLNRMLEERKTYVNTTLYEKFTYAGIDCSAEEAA

[5] = target: Calcium/calmodulin-dependent protein kinase type II subunit alpha (Homo sapiens, UniProt Q9UQM7); test: Binding affinity to recombinant human full-length N-terminal GST-tagged CAMK2A expressed in baculovirus expression system using GS peptide as substrate incubated for 1 hr in presence of calmodulin by TR-FRET assay
[6] = target: Serine/threonine-protein kinase BRSK1 (Homo sapiens, UniProt Q8TDC3); test: Binding affinity to recombinant full-length N-terminal His-FLAG-GST-tagged BRSK1 (unknown origin) expressed in baculovirus infected Sf9 insect cells incubated for 1 hr by TR-FRET assay
Serine/threonine-protein kinase BRSK1, sequence (Q8TDC3 whole entry): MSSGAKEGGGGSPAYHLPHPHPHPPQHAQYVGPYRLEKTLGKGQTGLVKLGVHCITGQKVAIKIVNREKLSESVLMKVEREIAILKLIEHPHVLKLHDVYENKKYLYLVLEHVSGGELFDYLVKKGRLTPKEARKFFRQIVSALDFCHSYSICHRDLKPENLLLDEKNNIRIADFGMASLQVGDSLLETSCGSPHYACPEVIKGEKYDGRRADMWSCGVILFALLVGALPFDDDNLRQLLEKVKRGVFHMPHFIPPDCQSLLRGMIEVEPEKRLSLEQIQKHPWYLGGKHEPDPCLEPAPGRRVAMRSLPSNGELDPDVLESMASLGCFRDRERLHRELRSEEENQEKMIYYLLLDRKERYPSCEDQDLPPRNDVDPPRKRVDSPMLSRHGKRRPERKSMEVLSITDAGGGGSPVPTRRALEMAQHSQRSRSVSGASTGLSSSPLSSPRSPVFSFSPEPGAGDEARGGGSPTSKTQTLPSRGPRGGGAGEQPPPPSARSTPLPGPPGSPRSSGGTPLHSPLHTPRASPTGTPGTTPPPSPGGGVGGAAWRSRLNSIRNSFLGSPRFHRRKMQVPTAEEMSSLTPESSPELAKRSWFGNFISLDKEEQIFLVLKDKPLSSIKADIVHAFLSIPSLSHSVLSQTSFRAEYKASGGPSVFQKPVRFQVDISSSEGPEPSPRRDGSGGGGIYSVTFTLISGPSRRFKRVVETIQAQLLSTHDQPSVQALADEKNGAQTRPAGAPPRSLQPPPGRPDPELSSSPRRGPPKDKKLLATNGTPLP

[7] = target: Protein kinase C alpha type (Homo sapiens, UniProt P17252); test: Binding affinity to recombinant full-length N-terminal His-FLAG-GST-tagged PRKCA (unknown origin) expressed in baculovirus infected Sf9 insect cells incubated for 1 hr by TR-FRET assay
[8] = target: Serine/threonine-protein kinase SIK2 (Homo sapiens, UniProt Q9H0K1); test: Binding affinity to recombinant full-length N-terminal His-FLAG-GST-tagged SIK2 (unknown origin) expressed in baculovirus infected Sf9 insect cells incubated for 1 hr by TR-FRET assay
[9] = target: Serine/threonine-protein kinase MRCK alpha (Homo sapiens, UniProt Q5VT25); test: Binding affinity to recombinant full-length N-terminal His-FLAG-GST-tagged CDC42BPA (unknown origin) (1 to 574 residues) expressed in baculovirus infected Sf9 insect cells incubated for 1 hr by TR-FRET assay
[10] = target: NUAK family SNF1-like kinase 2 (Homo sapiens, UniProt Q9H093); test: Binding affinity to recombinant full-length N-terminal His-FLAG-tagged NUAK2 (unknown origin) expressed in baculovirus infected Sf9 insect cells incubated for 1 hr by TR-FRET assay
NUAK family SNF1-like kinase 2, sequence (Q9H093 whole entry): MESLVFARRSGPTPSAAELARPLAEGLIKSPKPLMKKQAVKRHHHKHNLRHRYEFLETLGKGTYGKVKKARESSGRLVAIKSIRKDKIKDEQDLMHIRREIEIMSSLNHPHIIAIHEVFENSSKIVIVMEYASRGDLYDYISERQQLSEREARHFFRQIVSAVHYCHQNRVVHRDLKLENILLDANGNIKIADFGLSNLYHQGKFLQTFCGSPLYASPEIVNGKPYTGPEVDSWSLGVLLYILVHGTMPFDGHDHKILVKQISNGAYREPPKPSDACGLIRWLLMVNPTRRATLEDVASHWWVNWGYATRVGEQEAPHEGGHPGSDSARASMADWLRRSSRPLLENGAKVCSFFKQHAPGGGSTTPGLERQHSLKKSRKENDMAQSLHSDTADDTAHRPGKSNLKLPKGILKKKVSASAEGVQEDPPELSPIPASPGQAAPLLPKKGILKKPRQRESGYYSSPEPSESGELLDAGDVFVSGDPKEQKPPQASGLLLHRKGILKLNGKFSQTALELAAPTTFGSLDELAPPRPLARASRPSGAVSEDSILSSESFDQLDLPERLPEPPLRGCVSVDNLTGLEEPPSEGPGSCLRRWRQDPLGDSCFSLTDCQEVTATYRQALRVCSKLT

[11] = target: Proto-oncogene tyrosine-protein kinase Src (Homo sapiens, UniProt P12931); test: Binding affinity to recombinant full-length N-terminal His-FLAG-GST-tagged SRC (unknown origin) expressed in baculovirus infected Sf9 insect cells incubated for 1 hr by TR-FRET assay
Proto-oncogene tyrosine-protein kinase Src, sequence (P12931 2-536 limits assumed): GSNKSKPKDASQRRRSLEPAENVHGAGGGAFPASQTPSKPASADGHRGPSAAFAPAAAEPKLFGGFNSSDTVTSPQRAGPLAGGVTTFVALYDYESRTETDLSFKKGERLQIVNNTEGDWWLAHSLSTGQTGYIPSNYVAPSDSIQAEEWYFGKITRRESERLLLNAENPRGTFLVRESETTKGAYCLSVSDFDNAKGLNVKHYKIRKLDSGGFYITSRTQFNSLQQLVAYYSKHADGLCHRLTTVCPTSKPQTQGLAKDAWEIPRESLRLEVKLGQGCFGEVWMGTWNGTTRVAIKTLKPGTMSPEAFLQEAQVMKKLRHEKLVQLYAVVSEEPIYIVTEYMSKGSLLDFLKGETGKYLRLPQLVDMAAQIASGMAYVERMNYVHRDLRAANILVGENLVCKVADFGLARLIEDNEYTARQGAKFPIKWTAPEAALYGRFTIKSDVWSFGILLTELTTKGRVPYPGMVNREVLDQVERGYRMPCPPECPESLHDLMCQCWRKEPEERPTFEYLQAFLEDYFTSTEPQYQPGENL

[12] = target: Serine/threonine-protein kinase Chk1 (Homo sapiens, UniProt O14757); test: Binding affinity to recombinant human full-length N-terminal His-tagged CHEK1 expressed in baculovirus expression system using CHKtide as substrate incubated for 1 hr by TR-FRET assay
[13] = target: Mitogen-activated protein kinase 8 (Homo sapiens, UniProt P45983); test: Binding affinity to recombinant N-terminal His-FLAG-GST-tagged MAPK8 (unknown origin) (2 to 364 residues) expressed in baculovirus infected Sf9 insect cells incubated for 1 hr by TR-FRET assay
[14] = target: Proto-oncogene tyrosine-protein kinase receptor Ret (Homo sapiens, UniProt P07949); test: Binding affinity to recombinant N-terminal His-FLAG-GST-tagged RET (unknown origin) (658 to 1114 residues) expressed in baculovirus infected Sf9 insect cells incubated for 1 hr by TR-FRET assay
[15] = target: Phosphorylase b kinase gamma catalytic chain, liver/testis isoform (Homo sapiens, UniProt P15735); test: Binding affinity to recombinant full-length N-terminal His-FLAG-GST-tagged PHKG2 (unknown origin) expressed in baculovirus infected Sf9 insect cells incubated for 1 hr by TR-FRET assay
Phosphorylase b kinase gamma catalytic chain, liver/testis isoform, sequence (P15735 whole entry, the tested form may be a part, canonical isoform): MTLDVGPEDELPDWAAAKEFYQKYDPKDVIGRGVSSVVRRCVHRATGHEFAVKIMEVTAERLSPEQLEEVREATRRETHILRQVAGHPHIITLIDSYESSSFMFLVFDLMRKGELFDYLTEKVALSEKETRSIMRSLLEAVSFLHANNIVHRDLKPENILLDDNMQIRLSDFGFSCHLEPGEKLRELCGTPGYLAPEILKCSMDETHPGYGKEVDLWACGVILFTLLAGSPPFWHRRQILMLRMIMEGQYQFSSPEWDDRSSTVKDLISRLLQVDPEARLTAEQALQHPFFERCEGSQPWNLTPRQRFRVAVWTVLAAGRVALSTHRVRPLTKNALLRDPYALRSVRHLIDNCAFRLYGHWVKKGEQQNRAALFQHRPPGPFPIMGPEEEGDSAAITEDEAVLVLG

[16] = target: Serine/threonine-protein kinase ULK1 (Homo sapiens, UniProt O75385); test: Binding affinity to recombinant N-terminal His-FLAG-GST-tagged ULK1 (unknown origin) (1 to 649 residues) expressed in baculovirus infected Sf9 insect cells incubated for 1 hr by TR-FRET assay
[17] = target: Serine/threonine-protein kinase PAK 5 (Homo sapiens, UniProt Q9P286); test: Binding affinity to recombinant N-terminal His-FLAG-GST-tagged PAK7 (unknown origin) (425 to 719 residues) expressed in baculovirus infected Sf9 insect cells incubated for 1 hr by TR-FRET assay
[18] = target: Tyrosine-protein kinase Lyn (Homo sapiens, UniProt P07948); test: Binding affinity to recombinant full-length N-terminal His-FLAG-GST-tagged LYN (unknown origin) expressed in baculovirus infected Sf9 insect cells incubated for 1 hr by TR-FRET assay
[19] = target: Tyrosine-protein kinase SYK (Homo sapiens, UniProt P43405); test: Binding affinity to recombinant human full-length N-terminal GST-tagged SYK expressed in baculovirus expression system using Blk/Lyntide as substrate incubated for 1 hr by TR-FRET assay
[20] = target: Serine/threonine-protein kinase 32C (Homo sapiens, UniProt Q86UX6); test: Binding affinity to recombinant full-length N-terminal His-FLAG-GST-tagged STK32C (unknown origin) (66 to 486 residues) expressed in baculovirus infected Sf9 insect cells incubated for 1 hr by TR-FRET assay
Serine/threonine-protein kinase 32C, sequence (Q86UX6 whole entry, the tested form may be a part): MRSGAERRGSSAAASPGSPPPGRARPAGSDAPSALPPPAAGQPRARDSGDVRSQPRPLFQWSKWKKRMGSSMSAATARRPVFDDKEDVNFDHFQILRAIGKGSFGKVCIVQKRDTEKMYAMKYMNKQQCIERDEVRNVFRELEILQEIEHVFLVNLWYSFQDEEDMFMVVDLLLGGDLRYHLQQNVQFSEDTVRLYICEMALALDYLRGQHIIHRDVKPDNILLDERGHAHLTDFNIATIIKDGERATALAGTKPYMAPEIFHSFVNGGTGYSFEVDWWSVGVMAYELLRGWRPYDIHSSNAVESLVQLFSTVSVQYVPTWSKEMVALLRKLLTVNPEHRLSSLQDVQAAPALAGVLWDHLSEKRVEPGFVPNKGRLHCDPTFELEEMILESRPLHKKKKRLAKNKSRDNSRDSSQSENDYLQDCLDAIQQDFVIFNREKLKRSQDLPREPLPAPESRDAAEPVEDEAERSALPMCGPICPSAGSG

[21] = target: Dual specificity protein kinase CLK4 (Homo sapiens, UniProt Q9HAZ1); test: Binding affinity to recombinant human full length N-terminal GST-tagged CLK4 expressed in baculovirus expression system incubated for 1 hr by TR-FRET assay

Row | Structure (SMILES) | Kd [1] | Kd (Insulin receptor) | Kd (Misshapen-like kinase 1) | Kd [3] | Kd [4] | Kd (Angiopoietin-1 receptor) | Kd [5] | Kd [6] | Kd [7] | Kd [8] | Kd [9] | Kd [10] | Kd [11] | Kd [13] | Kd [14] | Kd [15] | Kd [16] | Kd [17] | Kd [18] | Kd [19] | also measured
1 | CO[C@@H]1[C@H](NCCOCCOCCOCCNC(=O)CCC2=[N+]3C(=Cc4c(C)cc(C)n4[B-]3(F)F)C=C2)C[C@H]2O[C@]1(C)n1c3ccccc3c3c4c(c5c6ccccc6n2c5c31)C(=O)NC4 | 116 nM | 1860 nM | 228 nM | 165 nM | 718 nM | 395 nM | 15 nM | 109 nM | 92 nM | 4 nM | 43 nM | 10 nM | 452 nM | 286 nM | 40 nM | 71 nM | 135 nM | 40 nM | 63 nM | 26 nM | Kd [2]: 15 nM; Kd [12]: 20 nM; Kd [20]: 448 nM; Kd [21]: 90 nM
2 | CO[C@@H]1[C@H](N(C)CCOCCOCCOCCNC(=O)CCC2=[N+]3C(=Cc4c(C)cc(C)n4[B-]3(F)F)C=C2)C[C@H]2O[C@]1(C)n1c3ccccc3c3c4c(c5c6ccccc6n2c5c31)C(=O)NC4 | 42 nM | 1690 nM | 158 nM | 257 nM | 1490 nM | 408 nM | 9 nM | 194 nM | 43 nM | 3 nM | 25 nM | 11 nM | 572 nM | 536 nM | 54 nM | 72 nM | 311 nM | 53 nM | 116 nM | 41 nM | Kd [20]: 326 nM; Kd [21]: 81 nM
